From ChEMBL document CHEMBL3227933, “Synthesis and preliminary biological studies of 4- and 5-[2-hydroxy-3-(isopropylamino)propoxy]benzimidazoles: selective beta2 adrenergic blocking agents” (J Med Chem, 1979) come the findings set out here.

Conditions in all cases: read-out: pA2 (converted)
Test [1] addresses T1, Beta-1 adrenergic receptor (Cavia porcellus, UniProt B0FL73). Description: Competitive antagonist activity at beta-1 adrenergic receptor in guinea pig assessed as inhibition of isoproterenol-induced atrial beat rate. Also noted: species or system Cardiac atrium.
Test [2] has as its target T1, Beta-1 adrenergic receptor. Nature of the test: Competitive antagonist activity at beta-1 adrenergic receptor in guinea pig assessed as inhibition of isoproterenol-induced atrial contractile force. Details: species or system Cardiac atrium.
Test [3] concerns the target Beta-2 adrenergic receptor (Cavia porcellus, UniProt Q8K4Z4). Description: Competitive antagonist activity at beta-2 adrenergic receptor in guinea pig assessed as inhibition of isoproterenol-induced tracheal relaxation.

T1 sequence (B0FL73 whole entry): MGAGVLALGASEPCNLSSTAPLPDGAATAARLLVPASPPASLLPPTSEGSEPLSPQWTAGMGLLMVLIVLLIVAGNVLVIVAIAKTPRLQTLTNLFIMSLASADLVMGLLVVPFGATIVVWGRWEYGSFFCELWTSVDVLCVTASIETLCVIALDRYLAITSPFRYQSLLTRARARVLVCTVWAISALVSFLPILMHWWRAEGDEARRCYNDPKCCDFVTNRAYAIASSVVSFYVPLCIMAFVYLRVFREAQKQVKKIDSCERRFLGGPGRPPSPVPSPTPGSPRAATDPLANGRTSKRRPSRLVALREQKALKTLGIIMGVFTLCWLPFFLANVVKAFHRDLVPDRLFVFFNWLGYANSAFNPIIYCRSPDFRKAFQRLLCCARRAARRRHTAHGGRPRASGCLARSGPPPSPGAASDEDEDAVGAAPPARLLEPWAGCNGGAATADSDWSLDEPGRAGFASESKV
Sequence of Beta-2 adrenergic receptor (Q8K4Z4 whole entry): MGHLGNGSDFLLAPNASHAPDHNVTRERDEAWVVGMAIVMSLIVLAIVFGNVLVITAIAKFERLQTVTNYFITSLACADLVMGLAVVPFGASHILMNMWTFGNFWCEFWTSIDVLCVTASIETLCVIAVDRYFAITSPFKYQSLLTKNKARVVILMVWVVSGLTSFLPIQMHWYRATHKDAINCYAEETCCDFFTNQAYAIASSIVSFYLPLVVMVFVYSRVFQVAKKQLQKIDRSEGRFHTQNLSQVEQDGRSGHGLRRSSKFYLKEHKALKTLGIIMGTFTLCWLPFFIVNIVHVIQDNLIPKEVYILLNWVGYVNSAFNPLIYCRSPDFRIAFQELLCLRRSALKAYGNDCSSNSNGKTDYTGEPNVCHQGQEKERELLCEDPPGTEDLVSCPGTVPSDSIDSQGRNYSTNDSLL

For the compound `CC(C)NCC(O)COc1ccc2[nH]cnc2c1` (stereo unspecified), the Kb in test [1] was 1000 nM; in test [2], 851 nM; in test [3], 380 nM.

For the compound `CC(C)NCC(O)COc1cccc2[nH]cnc12` (stereo unspecified), the Kb in test [1] was 39.8 nM; in test [2], 30.9 nM; in test [3], 2.29 nM.
